Test results from PubChem BioAssay AID2060908 (Molecular Pharmacology Branch, DTP, NCI, 2025).

System: 186277-243-T-J2-PDC complex spheroids, viability
Assay: Anticancer human tumor 186277-243-T-J2-PDC patient-derived colon adenocarcinoma cell line growth inhibition [RAS]
Details: for IC50: curve of first compound; for viability, T/C: stronger effect = lower value
Summary of the method: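 Tumour cells grown as complex spheroids with HUVEC endothelial cells and mesenchymal stem cells, treated with RAS pathway inhibitor combinations. Each agent spans half-log steps from near clinical Cmax, or 10 microM where Cmax is unknown.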
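Also: spheroids exposed to compounds for 7 days before viability read.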

## C=CC(=O)Nc1cc(Nc2nccc(-c3cn(C)c4ccccc34)n2)c(OC)cc1N(C)CCN(C)C + C=CC(=O)N1CCN(c2nc(OCC3CCCN3C)nc3c(F)c(-c4nc(N)cc(C)c4C(F)(F)F)c(Cl)cc23)C(C)C1
Second compound 0.00316 µM
  IC50: > 1000 nM
Second compound 0.01 µM
  IC50: > 1000 nM
Second compound 0.0316 µM
  IC50: > 1000 nM
Second compound 0.1 µM
  IC50: > 1000 nM
Second compound 0.316 µM
  IC50: > 1000 nM
Second compound 1 µM
  IC50: > 1000 nM
Second compound 0.00316 µM, first compound 0.00316 µM
  viability, T/C: 82.3%
Second compound 0.00316 µM, first compound 0.01 µM
  viability, T/C: 89.4%
Second compound 0.00316 µM, first compound 0.0316 µM
  viability, T/C: 89.8%
Second compound 0.00316 µM, first compound 0.1 µM
  viability, T/C: 80.5%
Second compound 0.00316 µM, first compound 0.316 µM
  viability, T/C: 97.4%
Second compound 0.00316 µM, first compound 1 µM
  viability, T/C: 110%
Second compound 0.01 µM, first compound 0.00316 µM
  viability, T/C: 96.1%
Second compound 0.01 µM, first compound 0.01 µM
  viability, T/C: 88.2%
Second compound 0.01 µM, first compound 0.0316 µM
  viability, T/C: 89.8%
Second compound 0.01 µM, first compound 0.1 µM
  viability, T/C: 94%
Second compound 0.01 µM, first compound 0.316 µM
  viability, T/C: 107%
Second compound 0.01 µM, first compound 1 µM
  viability, T/C: 77.3%
Second compound 0.0316 µM, first compound 0.00316 µM
  viability, T/C: 84.8%
Second compound 0.0316 µM, first compound 0.01 µM
  viability, T/C: 91.6%
Second compound 0.0316 µM, first compound 0.0316 µM
  viability, T/C: 93.2%
Second compound 0.0316 µM, first compound 0.1 µM
  viability, T/C: 96.1%
Second compound 0.0316 µM, first compound 0.316 µM
  viability, T/C: 99.1%
Second compound 0.0316 µM, first compound 1 µM
  viability, T/C: 97%
Second compound 0.1 µM, first compound 0.00316 µM
  viability, T/C: 89.6%
Second compound 0.1 µM, first compound 0.01 µM
  viability, T/C: 85%
Second compound 0.1 µM, first compound 0.0316 µM
  viability, T/C: 79.5%
Second compound 0.1 µM, first compound 0.1 µM
  viability, T/C: 109%
Second compound 0.1 µM, first compound 0.316 µM
  viability, T/C: 126%
Second compound 0.1 µM, first compound 1 µM
  viability, T/C: 86.8%
Second compound 0.316 µM, first compound 0.00316 µM
  viability, T/C: 89.4%
Second compound 0.316 µM, first compound 0.01 µM
  viability, T/C: 94.3%
Second compound 0.316 µM, first compound 0.0316 µM
  viability, T/C: 103%
Second compound 0.316 µM, first compound 0.1 µM
  viability, T/C: 86.5%
Second compound 0.316 µM, first compound 0.316 µM
  viability, T/C: 130%
Second compound 0.316 µM, first compound 1 µM
  viability, T/C: 98.9%
Second compound 1 µM, first compound 0.00316 µM
  viability, T/C: 109%
Second compound 1 µM, first compound 0.01 µM
  viability, T/C: 78.8%
Second compound 1 µM, first compound 0.0316 µM
  viability, T/C: 91.9%
Second compound 1 µM, first compound 0.1 µM
  viability, T/C: 104%
Second compound 1 µM, first compound 0.316 µM
  viability, T/C: 82.1%
Second compound 1 µM, first compound 1 µM
  viability, T/C: 81.2%
